From article PMC12040169 (PLOS Biology, 2025) come the findings set out here.

The nature of the series: in vitro. Conditions: human, hela cells, % viability.

A word on the viability: it is a read-out of living cells in per cent, often relative to untreated cells.

Take `O=C(CSC1=NC(=O)C(c2ccccc2)C(=O)N1)NC1CCCCC1` (centres unmarked) [CBK263804]: the viability at 28.5 h, 10 µM was found to be 103%.

As to `O=C1NC(=O)N(c2ccc3c(c2)OCO3)C(=O)/C1=C/c1ccc(OCc2cccc(C(=O)O)c2)cc1` [CBK263805], the viability at 28.5 h, 10 µM (bulk resorufin, single well) is 106%.

For `CN(C)CCCNC(=O)CCc1ccccc1` [CBK263806], the viability at 28.5 h, 10 µM came to 93%.

As to `O=C(O)CCCN1C(=O)C(O)=C(C(=O)c2ccc([N+](=O)[O-])cc2)C1c1ccccc1F` (centres unmarked) [CBK263810], the viability at 28.5 h, 10 µM stood at 97.8%.

In the case of `CC(Oc1ccccc1)C(=O)NCCN1CCOCC1` (centres unmarked) [CBK263812], the viability at 28.5 h, 10 µM was 94.1%.

Regarding `CCOc1cc(/C=C2\SC(=N)NC2=O)ccc1OCc1ccc(Br)cc1` [CBK263813], the viability at 28.5 h, 10 µM came out at 97.7%.

As for `Cc1ccc(OCC(=O)Nc2cccc3nsnc23)c(C)c1` [CBK263816], the viability at 28.5 h, 10 µM is 102%.

Take `COC(=O)c1ccccc1NC(=O)CCSc1ccc(Cl)cc1` [CBK263817]: the viability at 28.5 h, 10 µM was 109%.

For `COC(=O)c1ccccc1NC(=O)CSc1nc(C)cc(C)n1` [CBK263818], the viability at 28.5 h, 10 µM turned out to be 96.2%.

Regarding `O=[N+]([O-])c1ccc(N2CCN(S(=O)(=O)c3ccccc3)CC2)cc1Sc1cccc2cccnc12` [CBK263821], the viability at 28.5 h, 10 µM was 100%.

Turning to `Cc1ccc(C(=O)C2=C(O)C(=O)N(CCO)C2c2ccccc2[N+](=O)[O-])cc1` (centres unmarked) [CBK263822], the viability at 28.5 h, 10 µM worked out at 97.1%.

Take `COc1ccc(Cl)cc1NC(=O)C(=O)NCC1CCCO1` (centres unmarked) [CBK263823]: the viability at 28.5 h, 10 µM was determined as 91.8%.

Consider `COc1ccccc1NC(=O)c1c(NC(=O)c2cc([N+](=O)[O-])ccc2Cl)sc2c1CCCC2` [CBK263827], for which the viability at 28.5 h, 10 µM worked out at 88.7%.

Consider `O=C(O)CSc1nnc(-c2sc3ccccc3c2Cl)n1-c1ccccc1` [CBK263830], for which the viability at 28.5 h, 10 µM amounted to 92.9%.

As for `CC1(C)CC2CC(C)(CN2Cc2c(O)ccc3cc(-c4nc(-c5ccc(Br)cc5)cs4)c(=O)oc23)C1` (centres unmarked) [CBK263831], the viability at 28.5 h, 10 µM came to 103%.

For `O=C(O)CSc1nnc(C2COc3ccccc3O2)n1-c1ccccc1` (centres unmarked) [CBK263832], the viability at 28.5 h, 10 µM is 104%.

For the molecule `COc1ccc(Cl)cc1NC(=O)C(=O)NCc1ccccn1` [CBK263837], the viability at 28.5 h, 10 µM is 90.2%.

For `CCOC(=O)c1c(C)oc2ccc(O)c(CN3CCCCC3)c12` [CBK263838C], the viability at 28.5 h, 10 µM is 103%.

With `CN(Cc1ccccc1)c1nc2ccccn2c(=O)c1/C=C1/SC(=S)N(CCc2ccccc2)C1=O` [CBK263839], the viability at 28.5 h, 10 µM came out at 112%.

Consider `Cc1ccc(S(=O)(=O)NC(C)(C)C(=O)O)cc1` [CBK263840], for which the viability at 28.5 h, 10 µM is 88.8%.

Take `CCOC(=O)c1c(C)oc2ccc(OCC(=O)c3ccc(Br)cc3)cc12` [CBK263841]: the viability at 28.5 h, 10 µM came to 92.4%.

For `O=C1NC(=O)N(c2ccc(O)cc2)C(=O)/C1=C/c1ccc(OCc2ccc(Cl)cc2Cl)cc1` [CBK263842], the viability at 28.5 h, 10 µM (bulk resorufin, single well) was 92.1%.

In the case of `Cc1cccc(OC(=O)C2C(c3ccccc3)C(C(=O)O)C2c2ccccc2)c1` (centres unmarked) [CBK263843], the viability at 28.5 h, 10 µM came out at 94%.

On to `CC(C)(C)c1cc(C(=O)N/N=C/c2ccc(O)c([N+](=O)[O-])c2)[nH]n1` [CBK263844], for which the viability at 28.5 h, 10 µM was 98.4%.

For `Cc1ccc(C2NS(=O)(=O)NC2=N)cc1` (centres unmarked) [CBK263848], the viability at 28.5 h, 10 µM was found to be 95.2%.

On to `Cc1cc(C)n(C(=O)CCC(=O)Nc2cccc(Cl)c2C)n1` [CBK263851], for which the viability at 28.5 h, 10 µM turned out to be 99.3%.

On to `Cc1ccccc1C1NS(=O)(=O)NC1=N` (centres unmarked) [CBK263852], for which the viability at 28.5 h, 10 µM turned out to be 96.5%.

In the case of `Nc1nnnn1/N=C/c1cc(Cl)cc(Cl)c1OCc1ccc(Cl)cc1Cl` [CBK263853], the viability at 28.5 h, 10 µM worked out at 107%.

As for `Nc1nnc(Cn2c(-c3nonc3N)nc3ccccc32)s1` [CBK263854], the viability at 28.5 h, 10 µM came to 117%.

As to `NS(=O)(=O)c1ccc(NC(=O)CC2SC(=O)NC2=O)cc1` (centres unmarked) [CBK263855], the viability at 28.5 h, 10 µM came to 98.9%.

Turning to `O=C(O)COc1ccc(C=C2C(=O)c3ccccc3C2=O)cc1Cl` [CBK263857], the viability at 28.5 h, 10 µM came to 87.3%.

In the case of `Cc1cc2nn(-c3ccccc3)nc2cc1NC(=O)c1ccc(-c2cccc([N+](=O)[O-])c2)o1` [CBK263859], the viability at 28.5 h, 10 µM worked out at 99.6%.

For `O=C(CSc1ccccn1)Nc1ccc2ccccc2c1` [CBK263860], the viability at 28.5 h, 10 µM stood at 101%.

For the molecule `CN1CCN(c2ccc(S(=O)(=O)Nc3cc(C(=O)O)cc(C(=O)O)c3)cc2[N+](=O)[O-])CC1` [CBK263862], the viability at 28.5 h, 10 µM worked out at 96.8%.

Turning to `Cc1ccc(-c2nc3ccccc3s2)cc1NC(=O)c1sc2ccccc2c1Cl` [CBK263865], the viability at 28.5 h, 10 µM was found to be 93.9%.

As to `COc1cc(CNC2CCCCC2)ccc1OCC(N)=O` [CBK263866], the viability at 28.5 h, 10 µM amounted to 90.9%.

With `Cc1cccc(C2NS(=O)(=O)NC2=N)c1` (centres unmarked) [CBK263868], the viability at 28.5 h, 10 µM was found to be 98.3%.

`O=C(O)C1C(c2ccccc2)C(C(=O)Oc2cccc3ccccc23)C1c1ccccc1` (centres unmarked) [CBK263869]: the viability at 28.5 h, 10 µM was found to be 110%.

`O=C(CN1C(=O)S/C(=C\C=C\c2ccccc2)C1=O)Nc1cccc2c1C(=O)c1ccccc1C2=O` [CBK263870]: the viability at 28.5 h, 10 µM is 87.1%.

For the molecule `O=C(Nc1ccc2oc(-c3cccnc3)nc2c1)c1ccc(-c2ccccc2OC(F)(F)F)o1` [CBK263872], the viability at 28.5 h, 10 µM amounted to 86.5%.

As to `CCOC(=O)C1=C(Nc2ccc([N+](=O)[O-])cc2)S/C(=C\c2ccc(O)c(OC)c2)C1=O` [CBK263873], the viability at 28.5 h, 10 µM came to 89.3%.

With `CC(/C=C1\SC(=S)N(CCC(=O)Nc2ccc(O)c(C(=O)O)c2)C1=O)=C\c1ccccc1` [CBK263875], the viability at 28.5 h, 10 µM was 107%.

As to `N#C/C(=C\c1ccc(Oc2ccc(C(F)(F)F)cc2[N+](=O)[O-])cc1)c1nc2ccccc2[nH]1` [CBK263878], the viability at 28.5 h, 10 µM stood at 92.4%.

Turning to `COc1ccc(C(=O)Nc2ccc(S(=O)(=O)Nc3nccs3)cc2)cc1I` [CBK263880], the viability at 28.5 h, 10 µM was determined as 92.7%.

As for `CCCN1C(=O)N(CO)C2C1N(CO)C(=O)N2CCC` (centres unmarked) [CBK263882], the viability at 28.5 h, 10 µM was 101%.

For the molecule `COc1ccc(CC(=O)Nc2ccc(Nc3ccccc3)cc2)cc1` [CBK263884], the viability at 28.5 h, 10 µM is 114%.

`CC1CCN(c2ccc(S(=O)(=O)Nc3cc(C(=O)O)cc(C(=O)O)c3)cc2[N+](=O)[O-])CC1` [CBK263886]: the viability at 28.5 h, 10 µM amounted to 94.8%.

Turning to `COc1ccc(NCC(=O)N/N=C(\C)c2ccccc2O)cc1` [CBK263887], the viability at 28.5 h, 10 µM stood at 86.3%.

For the molecule `CCCCc1c(C)nc2ccc(OC)cc2c1SCCC(=O)O` [CBK263888], the viability at 28.5 h, 10 µM was found to be 98.1%.

As to `Cc1cc(C)nc(N/C(=N/C(=O)Cc2ccccc2)N2CCC(C(N)=O)CC2)n1` [CBK263889], the viability at 28.5 h, 10 µM amounted to 107%.

For the molecule `CCCc1c(C)nc2c(OC)cccc2c1SCCC(=O)O` [CBK263890], the viability at 28.5 h, 10 µM amounted to 122%.

On to `COc1cc(/C=C(\C#N)c2nc3ccccc3n2C)cc([N+](=O)[O-])c1O` [CBK263893], for which the viability at 28.5 h, 10 µM was determined as 91.4%.

On to `Cc1ccc(N2C(=O)NC(=O)/C(=C\c3ccc(OCC(=O)O)c(Br)c3)C2=O)cc1C` [CBK263899], for which, for the setting “bulk resorufin, single well”, the viability at 28.5 h, 10 µM turned out to be 84%.

Regarding `O=C(O)COc1ccc(/C=N/n2cnnc2)cc1Cl` [CBK263902], the viability at 28.5 h, 10 µM was 99.3%.

As for `CN(CC(=O)O)S(=O)(=O)c1ccc2c(c1)OCCO2` [CBK263904], the viability at 28.5 h, 10 µM is 95.8%.

For `O=C(Cc1ccc(Cl)cc1)NC(=S)Nc1ccccc1O` [CBK263905], the viability at 28.5 h, 10 µM worked out at 96.6%.

Regarding `O=C(CSC1=NC(=O)C(Cc2ccccc2)C(=O)N1)Nc1ncccn1` (centres unmarked) [CBK263906], the viability at 28.5 h, 10 µM was found to be 120%.

`COc1ccc(OCC(=O)Nc2ccc3oc(-c4ccc(OC)c(Br)c4)nc3c2)cc1` [CBK263913]: the viability at 28.5 h, 10 µM is 99.4%.

`O=C(COC(=O)CN1C(=O)C(=O)c2ccccc21)Nc1cccc2ccccc12` [CBK263915]: the viability at 28.5 h, 10 µM was determined as 90.5%.

Take `CCC(Sc1nnc2c(n1)[nH]c1ccccc12)C(=O)Nc1sc2c(c1C#N)CCCC2` (centres unmarked) [CBK263917]: the viability at 28.5 h, 10 µM stood at 80.3%.

In the case of `CCC1C(=O)N=C(SCC(=O)Nc2ncccn2)NC1=O` (centres unmarked) [CBK263920], the viability at 28.5 h, 10 µM is 94.6%.

Take `COc1ccc2nc(N/C(N)=N/C(=O)COc3ccc(Cl)cc3)nc(C)c2c1` [CBK263924]: the viability at 28.5 h, 10 µM was 95%.

Regarding `CC(C(=O)Nc1ccc2oc(-c3ccccc3)nc2c1)(c1ccccc1)c1ccccc1` [CBK263928], the viability at 28.5 h, 10 µM was 91%.

`Cc1cccnc1NC(=S)NC(=O)c1ccc([N+](=O)[O-])cc1` [CBK263931]: the viability at 28.5 h, 10 µM came to 92.9%.

Consider `COc1cc(/C=N/NC(=O)CC#N)ccc1OCc1ccccc1Cl` [CBK263932], for which the viability at 28.5 h, 10 µM was determined as 84.9%.

`O=C(O)c1cccc(C(=O)c2cccc(C(=O)O)c2)c1` [CBK263933]: the viability at 28.5 h, 10 µM was found to be 99.1%.

Turning to `CC(=O)c1c(C(=O)O)[nH]c(C(=O)O)c1C` [CBK263934], the viability at 28.5 h, 10 µM was 87.4%.

On to `Nc1ncnc2c1C(c1ccc(Cl)cc1)c1c(ccc3ccccc13)O2` (centres unmarked) [CBK263938], for which the viability at 28.5 h, 10 µM amounted to 101%.

For `O=C(O)c1cccc(Nc2nc(-c3ccccc3)nc3ccccc23)c1` [CBK263941C], the viability at 28.5 h, 10 µM stood at 97.6%.

For the molecule `N=C1NC(=O)C(CC(=O)Nc2cccc([N+](=O)[O-])c2)S1` (centres unmarked) [CBK263944], the viability at 28.5 h, 10 µM was 87.9%.

`CC1(C)CC(NC(=O)c2cc([N+](=O)[O-])ccc2Cl)CC(C)(C)N1` [CBK263948]: the viability at 28.5 h, 10 µM came to 93.7%.

Turning to `CC(=O)Nc1cc(NC(=O)CCCC(=O)O)ccc1Cl` [CBK263949], the viability at 28.5 h, 10 µM was 73.3%.

With `CC1=NN(c2ccccc2)C(=O)/C1=C1/C(=O)Nc2c(C)cc(Br)cc21` [CBK263950], the viability at 28.5 h, 10 µM was found to be 92%.

Consider `O=C(O)/C=C\C(=O)Nc1cccc(NC(=O)c2cccs2)c1` [CBK263952], for which the viability at 28.5 h, 10 µM turned out to be 85.7%.

Regarding `CC(=O)Nc1ccccc1NC(=O)C(C)Oc1ccc(Cl)cc1Cl` (centres unmarked) [CBK263954], the viability at 28.5 h, 10 µM amounted to 96.8%.

In the case of `O=C(O)/C=C\C(=O)Nc1ccc(Cl)c(NC(=O)Cc2ccccc2)c1` [CBK263955], the viability at 28.5 h, 10 µM is 93.7%.

Take `Nc1c(Cl)cc(NC(=O)CCCC(=O)O)cc1Cl` [CBK263957]: the viability at 28.5 h, 10 µM came to 91%.
